In ChEMBL document CHEMBL4385667, “Phosphoramidate derivates as controlled-release prodrugs of l-Dopa” (Bioorg Med Chem Lett, 2019):

Legend:
Assay type in all cases: physicochemical
[1] = Stability in pH 7.4 buffer assessed as half life at 37 degC by 31P NMR analysis; conditions: for half-life: pH 7.4 buffer
[2] = Stability in pH 7.4 buffer assessed as rate constant of compound hydrolysis at 37 degC by 31P NMR analysis
[3] = Stability in pH 3 buffer assessed as half life at 37 degC by 31P NMR analysis
[4] = Stability in pH 3 buffer assessed as rate constant of compound hydrolysis at 37 degC by 31P NMR analysis
[5] = Stability in pH 7.4 buffer assessed as compound hydrolysis measured over 8 hrs at 37 degC by 31P NMR analysis; conditions: pH 7.4, 8 h

SMILES | half-life [1] | K [2] | half-life [3] | K [4] | Stability [5] | t1/2 ([1]; buffer)
CCOC(=O)[C@@H](NC(C)=O)[C@@H](C)OP(=O)([O-])N[C@@H](Cc1ccc(O)c(O)c1)C(=O)[O-].[K+].[K+] | > 8 h | Stable | 5.5 h | 1.2 ×10⁻¹ /hr | Stable | 
O=C([O-])CCOP(=O)([O-])N[C@@H](Cc1ccc(O)c(O)c1)C(=O)[O-].[K+].[K+].[K+] | < 0.0833 h | Unstable | < 0.0833 h | Unstable |  | 
CC(=O)N[C@H](C(=O)[O-])[C@@H](C)OP(=O)([O-])N[C@@H](Cc1ccc(O)c(O)c1)C(=O)[O-].[K+].[K+].[K+] | 0.92 h | 7.2 ×10⁻¹ /hr | < 0.0833 h | Unstable |  | 
CC(=O)N[C@@H](COP(=O)([O-])N[C@@H](Cc1ccc(O)c(O)c1)C(=O)[O-])C(=O)[O-].[K+].[K+].[K+] |  | 7 ×10⁻² /hr | < 0.0833 h | Unstable |  | 9.9 h
O=C([O-])CCCOP(=O)([O-])N[C@@H](Cc1ccc(O)c(O)c1)C(=O)[O-].[K+].[K+].[K+] | > 8 h | Stable | 1.2 h | 5.4 ×10⁻¹ /hr | Stable | 
CC(=O)NCCOP(=O)([O-])N[C@@H](Cc1ccc(O)c(O)c1)C(=O)[O-].[K+].[K+] | > 8 h | Stable | 1.7 h | 4 ×10⁻¹ /hr | Stable | 
CC(=O)N[C@@H](COP(=O)([O-])NCCc1ccc(O)c(O)c1)C(=O)[O-].[K+].[K+] | 12.1 h | 5.7 ×10⁻² /hr | < 0.0833 h | Unstable |  | 
CCOC(=O)CCOP(=O)([O-])N[C@@H](Cc1ccc(O)c(O)c1)C(=O)[O-].[K+].[K+] | > 8 h | Stable | 1.7 h | 4 ×10⁻¹ /hr | Stable | 
CCOC(=O)[C@H](COP(=O)([O-])N[C@@H](Cc1ccc(O)c(O)c1)C(=O)[O-])NC(C)=O.[K+].[K+] | > 8 h | Stable | 2.7 h | 2.5 ×10⁻¹ /hr | Stable | 
